This note sets out measurements from patent EP1285659A1, “Use of clarithromycin compositions in the manufacture of a medicament for the treatment of arthritis deformans” (Fondazione Salvatore Maugeri, priority 2001, dated 2003).

The format of this series is in vivo, patients. The source says: The clinical experimentation has been carried out on 18 patients of which 14 females and 4 males, having an average age equal to 62 years selected by the inclusion and exclusion criteria as hereinafter reported. The patients submitted to the clinical experimentation suffered from arthritis deformans diagnosed according to the ARA International Criteria since at least two years, belonging to the 2th and 3rd functional classes according to Steinbrocker. The disease was clinically active notwithstanding the use of drugs known as Disease-Modifying AntiRheumatic Drugs ([…]) able to modify the course of the illness such as for example methotrexate azathioprine, chloroquine, hydroxychloroquine and ciclosporin and notwithstanding the use of steroid and not steroid anti-inflammatory drugs. The patients suffering from arthritis deformans of 4th functional class according to Steinbrocker have been excluded from the experimentation that is the patients invalid with permanent injuries, the patients with associated serious systemic diseases, relevant psychiatric and neuropathic diseases, the drug addicts, the patients suffering from hypersensitivity to the macrolides and the patients under treatment with carbamazepine, ciclosporin and antihistamines. The clarithromycin administration started after the suspension of the Disease-Modifying AntiRheumatic Drugs since one month. In six patients who were assuming a steroid anti-inflammatory drug since at least two weeks, the administration of the same steroid drug with a 6 mg dose of prednisonic equivalent has been associated to the administration of clarithromycin. The administration of clarithromycin was 500 mg twice a day for 8-14 days and subsequently a customized dosage from 500 to 2,000 mg per day in one or two administrations has been applied. The control of the patients has been periodically carried out on 0, 10, 30, 60, 90 and 180 days by medical examination and determination of the haematochemical and functional indexes. In particular the following indexes have been controlled: • HAQ (Health Assessment Questionnaire, 1986), internationally validated as reference functional index in the rheumatic disease; • VAS (Visuanalogic Ache Scale according to Scott Huskisson); • ESR (Erythro Sedimentation Rate).

Where [1] appears, read: Day 180, clarithromycin 500 mg twice a day for 8-14 days, then 500 to 2,000 mg per day, p < 0.05 (Mann-Whitney U test).

Structures are written as SMILES. Where two headings read alike, the source gives them in different places.

Regarding `CC[C@H]1OC(=O)[C@H](C)[C@@H](O[C@H]2C[C@@](C)(OC)[C@@H](O)[C@H](C)O2)[C@H](C)[C@@H](O[C@@H]2O[C@H](C)C[C@H](N(C)C)[C@H]2O)[C@](C)(OC)C[C@@H](C)C(=O)[C@H](C)[C@@H](O)[C@]1(C)O` [clarithromycin], the ESR is 44.8 ± 8.4 (Day 0 (baseline, before clarithromycin), 18 patients, Erythro Sedimentation Rate) and 27 ± 5.8 (c) under setting [1]. In addition, the HAQ runs as follows: (Day 0 (baseline, before clarithromycin), 18 patients, Health Assessment Questionnaire) 20.2 ± 2.6; (Day 180, clarithromycin 500 mg twice a day for 8-14 days, then 500 to 2,000 mg per day, p < 0.0001 (Mann-Whitney U test)) 5.5 ± 0.51 (a). In addition, the VAS by setting is: (Day 0 (baseline, before clarithromycin), 18 patients, Visuanalogic Ache Scale according to Scott Huskisson) 4.7 ± 0.51; under setting [1], 1.32 ± 0.44 (b). The “side effect ascribable to the drug” value (human, in vivo) is recorded as “No significant side effect”. The molecule further returned a patients not responding (number of patients out of 18) of 4. Also, the “patients responding to the therapy” value (number of patients out of 18) is 14. Moreover, where the note is “starting from the second week of treatment”, the “reduction of the symptomatology” value is on record as “significant reduction of the symptomatology”.
